Results taken from US12171801B2, “Compositions and related methods for controlling vector-borne diseases” (priority 2017, dated 2024).
“Also recorded” adds a separate entry of the source.

How the values were obtained:
[1] = tested on: Anopheles coluzzii mosquitoes; experiment: Survival of mosquitoes given azithromycin blood meals; type: in vivo; conditions: azithromycin 0.1, 1 or 5 μg/ml in blood meals
Protocol: For each Plasmodium infection, at least 100 age-matched, 2- to 3-day-old, mosquitoes per condition are offered a control or experimental blood meal from a membrane-feeding device (2 ml Eppendorf tube) covered with parafilm and kept at 37° C. and nonengorged mosquitoes are removed. Meals are given every four days for a total of three blood meals. Between the blood meals, mosquitoes are provided with a cotton pad moistened with distilled water for oviposition. Unfed mosquitoes are not removed after the second and later blood meals. Deaths are counted daily and carcasses are removed and stored for Asaia analysis as described herein. At least 50 mosquitoes per concentration of azithromycin are used for each replicate. At the end of the last blood meal, mosquitoes are kept for 12 hours before dissection.
The survival rates of mosquitoes treated with azithromycin are compared to the mosquitoes treated with the negative control.

Asaia = Asaia quantification by qPCR in midguts of azithromycin blood-fed mosquitoes; type: in vivo, Anopheles coluzzii; conditions: azithromycin 0.1, 1 or 5 μg/ml in blood meals; midgut
Protocol: Therapeutic design: Blood meals mixed with azithromycin solutions are formulated with final antibiotic concentrations of 0 (negative control), 0.1, 1, or 5 μg/ml in 1 mL of blood.
Azithromycin solutions are made by dissolving azithromycin (SIGMA-ALDRICH, PZ0007) in DMSO. Different volumes of azithromycin solution are added to fresh blood to total 1 mL in preparation for blood meals. The final azithromycin concentrations in the blood are 0 (just solvent as control solution), 0.1, 1, or 5 μg/ml.
For each Plasmodium infection, at least 100 age-matched, 2- to 3-day-old, mosquitoes per condition are offered a control or experimental blood meal from a membrane-feeding device (2 ml Eppendorf tube) covered with parafilm and kept at 37° C. and nonengorged mosquitoes are removed. Meals are given every four days for a total of three blood meals. […] Deaths are counted daily and carcasses are removed and stored for Asaia analysis as described herein. […]
Before dissection, mosquitoes are immersed in 70% ethanol for 5 minutes then rinsed 3 times in sterile phosphate-buffered saline (PBS) to kill and remove surface bacteria, thus minimizing sample contamination with cuticle bacteria during dissection. […] The 16S ribosomal DNA (rDNA) is used for Asaia quantification and is shown as a ratio of the Anopheles housekeeping gene 40S ribosomal protein S7 (Vector-Base gene ID AGAP010592). […]

[2] = tested on: Acyrthosiphon pisum aphids; experiment: Aphid survival monitoring; type: in vivo
[3] = tested on: Acyrthosiphon pisum aphids; experiment: Aphid developmental stage monitoring; type: in vivo; conditions: for aphids that did not mature further than the 4rd instar stage: 11 days post-treatment
Protocol: (§1) In addition, the developmental stage (1st, 2nd, 3rd, 4th, 5th instar) was determined daily throughout the experiment. Once an aphid reached the 4th instar stage, they were given their own artificial feeding system in a deep petri dish so that fecundity could be monitored once they reached adulthood.
(§2) Each treatment group received approximately the same number of individuals from each of the collection plant. For each treatment, 20 aphids were placed onto each leaf. Aphids were monitored daily for survival and dead aphids were removed when they were discovered. In addition, the developmental stage (1st, 2nd, 3rd, 4th, 5th instar, and 5 R, representing a reproducing 5th instar) was determined daily throughout the experiment. Pictures of aphids were taken throughout the experiment to evaluate size differences between treatment groups.
Aphids LSR-1 (which harbor only Buchnera), Acyrthosiphon pisum were grown on fava bean plants (Vroma vicia faba from Johnny's Selected Seeds) in a climate-controlled incubator (16 h light/8 h dark photoperiod; 60±5% RH; 25±2° C.). Prior to being used for aphid rearing, fava bean plants were grown in potting soil at 24° C. with 16 h of light and 8 h of darkness. To limit maternal effects or health differences between plants, 5-10 adults from different plants were distributed among 10 two-week-old plants, and allowed to multiply to high density for 5-7 days. For experiments, first and second instar aphids were collected from healthy plants and divided into 2 different treatment groups: 1) negative control (leaf injected with water plus blue food coloring) and 2) leaf injected with 50 μg/ml rifampicin in water plus blue food coloring. Each treatment group received approximately the same number of individuals from each of the collection plants. For treatment, rifampicin stock solution (25 mg/ml in 100% methanol) was diluted to 50 μg/ml in water plus blue food coloring. The solution was then placed into a 1.5 ml Eppendorf tube with a fava bean stem perfused with the solutions and the opening of the tube was closed using parafilm. This feeding system was then placed into a deep petri dish (Fisher Scientific, Cat #FB0875711) and aphids were applied to the leaves of the plant. For each treatment, 74-81 aphids were placed onto each leaf. The feeding systems were changed every 2-3 days throughout the experiment. Aphids were monitored daily for survival and dead aphids were removed from the deep petri dish when they were discovered. In addition, the developmental stage (1st, 2nd, 3rd, 4th, 5th and 5 R (5th that has reproduced) instar) was determined daily throughout the experiment.
In addition, the developmental stage (1st 2nd, 3rd, 4th, 5th and 5 R (5th that has reproduced) instar) was determined daily throughout the experiment.
(§3) In addition, the developmental stage (1st, 2nd, 3rd, 4th, 5th, and 5 R (5th that has reproduced) instar) was determined daily throughout the experiment.
In addition, the developmental stage (1st, 2nd, 3rd, 4th, 5th and 5 R (5th that has reproduced) instar) was determined daily throughout the experiment.
In addition, the developmental stage (1st, 2nd, 3rd, 4th, 5th, and 5 R (5th instar aphids that are reproducing) instar) was determined daily throughout the experiment.
In addition, the developmental stage (1st, 2nd, 3rd 4th and 5th instar) was determined daily throughout the experiment.
as §1, with “5th, and 5 R (5th that has reproduced)” for “5th”
as §3

Buchnera = experiment: Buchnera/aphid DNA copy number by qPCR; type: in vivo, Acyrthosiphon pisum
[4] = tested on: Acyrthosiphon pisum aphids; experiment: Aphid size (body area) from images; type: in vivo; conditions: 10 or 100 uM in artificial diet, 3 days post-treatment
Protocol: (§4) For adult aphids, new nymphs were counted daily and then discarded. At the end of the experiments, fecundity was determined as the mean number of offspring produced daily once the aphid reached adulthood. Pictures of aphids were taken throughout the experiment to evaluate size differences between treatment groups.
as §2, with “Pictures of aphids were taken throughout the experiment to evaluate size differences between treatment groups.” left out
(§5) For adult aphids, new nymphs were counted daily and then discarded. At the end of the experiments, fecundity was measured in two ways: 1) the mean day at which the first offspring for the treatment group was determined and 2) the mean number of offspring produced daily once the aphid reached adulthood. […]
Aphids LSR-1 (which harbor only Buchnera), Acyrthosiphon pisum were grown on fava bean plants (Vroma vicia faba from Johnny's Selected Seeds) in a climate-controlled incubator (16 h light/8 h dark photoperiod; 60±5% RH; 25±2° C.). […] Aphids were monitored daily for survival and dead aphids were removed from the deep petri dish when they were discovered. […]

[5] = tested on: Acyrthosiphon pisum aphids; experiment: Aphid fecundity; type: in vivo; conditions: 10 or 100 uM
Protocol: as §1, §4
as §1, with “5th, and 5 R (5th that has reproduced)” for “5th”
as §5
In addition, the developmental stage (1st, 2nd, 3rd, 4th, 5th instar) was determined daily throughout the experiment. […]

[6] = tested on: gram-negative and gram-positive bacteria as well as fungi; conditions: cited from earlier work
[7] = leaf coating, 10 uM in 0.025% Silwet L-77

Which results are given for `CC[C@H]1OC(=O)[C@H](C)[C@@H](O[C@H]2C[C@@](C)(OC)[C@@H](O)[C@H](C)O2)[C@H](C)[C@@H](O[C@@H]2O[C@H](C)C[C@H](N(C)C)[C@H]2O)[C@](C)(O)C[C@@H](C)CN(C)[C@H](C)[C@@H](O)[C@]1(C)O` [azithromycin]?
survival rate of mosquitoes [1]: decreased compared to the control; Asaia specific genes (16S rDNA qPCR, ratio to S7) (Asaia): reduction of Asaia specific genes

Which results are given for `Cc1cc2c(C(C)C)c(O)c(O)c(C=O)c2c(O)c1-c1c(C)cc2c(C(C)C)c(O)c(O)c(C=O)c2c1O` [gossypol, gossypol acetic acid]?
time after which aphids began dying ([2]; 0.5%, through plants): 2 days; time by which all aphids succumbed to treatment ([2]; 0.5%, through plants): ≤ 4 days

With `CC(=O)CCC(=O)O` [levulinic acid] as the molecule, how does the “aphids that did not mature further than the 4rd instar stage” value ([3]; 0.03%) read?
The value was roughly 23%.

And the aphid development ([3]; 0.03 or 0.3% in water, leaf injection and through plant, eNASCO)?
The aphid development was “delayed aphid development”.

And the “aphids that did not mature further than the 4rd instar stage” value ([3]; 0.3%)?
The value was roughly 63%.

And the aphid survival ([2]; 0.03%, 11-day experiment)?
Its aphid survival is “higher mortality compared to control treated aphids”.

What about the aphid survival ([2]; 0.03 or 0.3%) of the same molecule?
Its aphid survival is “dose-dependent decrease in survival; also recorded: decrease in insect survival”.

What about the aphid survival ([2]; 0.3%, 11-day experiment) of the same molecule?
The aphid survival was “significantly less”.

For `CC(C)(CO)[C@@H](O)C(=O)NCCCO` [pantothenol], which “Buchnera/aphid DNA copies” value (Buchnera; 10 or 100 uM, 8 days) is on record?
The value was “does not affect Buchnera/aphid DNA copy number directly”.

What about the “Buchnera/aphid DNA copies” value (Buchnera; 10 or 100 uM, 8 days, listed as Pantothenol) of the same molecule?
The value was “did not affect endosymbiotic Buchnera”.

And the “aphid size (area)” value [4]?
Its value is “drastic effect; also recorded: smaller in area than untreated controls”.

And the aphid reproduction [5]?
Its aphid reproduction is “loss of aphid reproduction”.

And the aphid reproduction ([5]; listed as Pantothenol)?
The aphid reproduction was “loss of reproduction”.

And the aphid development ([3]; 10 or 100 uM in artificial diet without essential amino acids, through plants, eNASCO)?
The aphid development was “delayed aphid development”.

And the aphid development [3, 7]?
Its aphid development is “did not affect aphid development”.

What about the aphid survival ([2]; 10 or 100 uM in artificial diet, through plants) of the same molecule?
The aphid survival was “increased aphid mortality; also recorded: negatively affected aphid fitness”.

What about the aphid survival [2, 7] of the same molecule?
Its aphid survival is “lower survival rates”.

What about the aphid survival ([2]; leaf coating, 10 uM in 0.025% Silwet L-77, listed as Pantothenol) of the same molecule?
The aphid survival was “aphid death”.

With `O=C/C=C/c1ccccc1` [trans-cinnemaldehyde] as the molecule, how does the “Buchnera/aphid DNA copies” value (Buchnera; lowest concentration (0.5%), 3 days) read?
The value was “high ratios of Buchnera/aphid DNA copies”.

And the aphid development ([3]; 0.05%, 0.5% and 5% in water, leaf perfusion and through plants, 3 days)?
Its aphid development is “delayed”.

What about the aphid development ([3]; 0.05%, 0.5% and 5% in water, leaf perfusion and through plants, 3 days, listed as Trans-cinnemaldehyde) of the same molecule?
Its aphid development is “delayed aphid development”.

And the “aphid development (stage reached)” value ([3]; 5%)?
Its value is “remained at the 1st instar stage throughout the course of the experiment”.

And the aphid survival ([2]; 0.05%, 0.5%, and 5%)?
Its aphid survival is “dose-dependent decrease in survival; also recorded: significantly lower”.

B1: NCR335: NCR peptide, SEQ ID NO: 197 (peptide)
chain: MKMRIHMAQIIMFFYALIIFLSPFLVDRRSFPSSFVSPKSYTSEIPCKATRDCPYELYYETKCVDSLCTY
With B1 as the molecule, how does the antimicrobial activity [6] read?
The antimicrobial activity was “effective against gram-negative and gram-positive bacteria as well as fungi”.
